Reference: patent US20140056951A1, “METHODS AND COMPOSITIONS FOR TREATING BIOFILMS” (PRESIDENT AND FELLOWS OF HARVARD COLLEGE, priority 2011, published 2014)
Where two headings read alike, the source gives them in different places.

Assays:
S. aureus strain SCO1 = test: Submerged biofilm formation by S. aureus, crystal violet staining; type: cell-based, Staphylococcus aureus; settings: for inhibition of S. aureus biofilm formation: TSB with NaCl (3%) and Glucose (0.5%), norspermidine 10 μM, norspermine 100 μM; for inhibition of S. aureus submerged biofilm formation, compound screen: compounds tested at 500 μM
Method: (§1) The compounds were tested at 500 μM. Biofilm formation was visualized by crystal violet staining of submerged biofilms.
(§2) Whether polyamines might prevent biofilm formation by other bacteria that produce an exopolysaccharide matrix was examined. […] The compounds were tested at 500 μM. Biofilm formation was visualized by crystal violet staining of submerged biofilms.
The medium was applied with norspermidine (10 μM), norspermine (100 μM) or spermine (500 μM). Planktonic cells were removerd (19A-D). Wells were washed once, and incubated with Crystal Violet (0.1%) for 15 mins. Wells were washed twice in DDW (19E-H).
The effect of certain polyamines combined with biofilm-inhibiting D-amino acids in Staphylococcus was examined. S. aureus strain SC-01 was grown to a mid-logarithmic phase and diluted 1:1000 into a 12 wells plate in a TSB medium applied with NaCl (3%) and Glucose (0.5%). The medium was applied with either norspermidine or D-tyrosine or both as indicated below each panel. Planktonic cells were removerd Wells were washed once, and incubated with Crystal Violet (0.1%) for 15 mins. Wells were washed twice in DDW.

[1] = test system: B. subtilis NCBI 3610 / strain FC5 (PepsA-lacZ); test: Growth and matrix operon expression in shaking MSgg medium; type: cell-based, Bacillus subtilis; settings: 100 μM, MSgg medium with shaking
Method: Strain FC5 (carrying PepsA-lacZ) was grown in MSgg medium containing norspermidine (100 μM) with shaking or in untreated medium as control (NT).
NCBI 3610 was grown in MSgg medium applied with norspermidine (100 μM) with shaking or in untreated medium served as a control (NT). […] Therefore, whether norspermidine interacts directly with the exopolysaccharide was investigated. To attempt to detect such an interaction, dynamic light scattering was used. Dynamic scattering is a standard procedure for measuring the average radius of polymers in which a laser beam is transmitted through a sample containing polymers in solution (Berne, 1976; Orgad et al., 2011; Vinayahan et al., 2010).

E. coli strain MC4100 = test: Submerged biofilm formation by E. coli, crystal violet staining; type: cell-based, Escherichia coli; settings: compounds tested at 500 μM
Method: as §1, §2
(§3) In testing E. coli, the biofilm-proficient strain MC4100 was selected because a major component of exopolysacchride is colanic acid (Danese et al., 2000; Price and Raivio, 2009).

[2] = test system: B. subtilis exopolysaccharide mutant (ΔepsH; DS76) and TasA mutant (ΔtasA; FC55); test: Pellicle formation by matrix mutants in presence of norspermidine; type: cell-based, Bacillus subtilis; settings: 25 μM norspermidine, 3-day-old cultures
Source text: It was observed that the residual pellicle (wispy fragments of floating material with some structure) produced in the presence of norspermidine resembled pellicles seen for a mutant blocked in exopolysaccharide production but not those seen (thin, featureless pellicles) for a mutant blocked in amyloid-fiber production. […] In other words, the effect of norspermidine was synergistic with that of a mutation blocking fiber formation but not with a mutant blocked in exopolysaccharide production (FIG. 4B).

[3] = test system: B. subtilis wild-type cells; test: Biofilm formation on solid biofilm medium, B. subtilis; type: cell-based, Bacillus subtilis; settings: 1 μl of cells mixed with 1 μl (1 mM) polyamine
Method: B. subtilis wild-type cells were grown to a mid-logarithmic phase and 1 μl of cells was mixed with 1 μl (1 mM) of each polyamine. The mixture was plated on solid biofilm medium.
B. subtilis wild-type cells were grown to a mid-logarithmic phase and 1 μl of cells was either mixed with PBS (18C) or mixed with 1 μl (1 mM) of each polyamine (18D). The mixture was plated on solid biofilm medium. “3*” refers to 1,5,9-Triazacyclododecane.

[4] = test system: exopolysaccharide of S. aureus cells; test: Fluorescence microscopy of exopolysaccharide staining, S. aureus; type: cell-based, Staphylococcus aureus
[5] = test system: exopolysaccharide of E. coli cells; test: Fluorescence microscopy of exopolysaccharide staining, E. coli; type: cell-based, Escherichia coli
Source text: as §3

[6] = test system: P. aeriginosa strain PA14; test: Biofilm formation by Pseudomonas on solid M63 medium; type: cell-based, Pseudomonas aeruginosa; settings: 1 μl of cells mixed with 1 μl (10 mM) polyamine
Method: The effect of polyamines on biofilm formation by Pseudomonas was examined. P. aeriginosa strain PA14 were grown to a mid-logarithmic phase and 1 μl of cells was mixed with 1 μl (10 mM) of each polyamine. The mixture was plated on solid M63 medium.

[7] = test system: exopolysaccharide and TasA of B. subtilis NCBI 3610; test: Fluorescence microscopy of matrix components (concanavalin A-Texas Red, TasA-mCherry), B. subtilis; type: cell-based, Bacillus subtilis
Source text: The cells were washed in PBS and stained for exopolysaccharide with a conjugate of concanavalin A with Texas-Red.
[…] Cells were washed in PBS, and visualized by fluorescence microscopy.
To investigate further, exopolysaccharide was visualized by fluorescence microscopy using a conjugate of the carbohydrate-binding protein concanavalin A with Texas Red (FIG. 5) (McSwain et al., 2005). As evidence of specificity, the conjugate decorated wild-type cells but not cells from a mutant (Aeps) blocked in exopolysaccharide production (FIG. 6A). Indeed, at an exposure at which concanavalin A staining with the wild type strain gave an extremely bright fluorescent signal, little or no signal could be detected for the Aeps mutant, except at long exposures and enhanced brightness (FIG. 6A). Next, we investigated the effects of norspermidine and spermidine. […] Therefore, the difference in the staining was evidently due to differential levels of cell-associated exopolysaccharide. […] Thus, while not being bound to any theory, it is believed that norspermidine disrupts the matrix and by targeting exopolysaccharide.

[8] = test system: Proteus mirabilis strain BB2000; test: Proteus mirabilis biofilm formation in polystyrene wells, crystal violet staining; type: cell-based; settings: 1 mM, M9 + glucose, 48 hours at 30° C., OD 595 nm
Method: To examine the effects of polyamines on biofilm formation, wells were initially treated with water (no treatment), 1 mM norspermidine, and 1 mM norspermine in 3 ml M9 + glucose before inoculation with P. mirabilis. Biofilms were permitted to grow for 48 hours at 30° C. without shaking The amount of biofilm formed was assessed with the standard assay of crystal violet staining (O'Toole G et al., Biofilm formation as microbial development, Annu Rev. Microbiol. (2000) 54:49-79); supernatant was removed from the wells and crystal violet (at […]) was then incubated in each well for 15 minutes at room temperature, followed by removal of the crystal violet from the wells and a subsequent washes with water. Any crystal violet attached the wells was next solubilized with 95% ethanol for 15 minutes at room temperature, and the subsequent optical density at 595 nm in each well was measured with a multiplate reader.

[9] = test system: B. subtilis strain NCBI3610; test: Biofilm (pellicle) inhibition assay, B. subtilis in liquid biofilm-inducing medium; type: cell-based, Bacillus subtilis; settings: for minimal effective concentration: Bacillus subtilis; for inhibition of pellicle formation at 50 μM: cells diluted 1:1000 in biofilm media, final concentration 50 μM
Method: Bacillus subtilis strains PY79, 3610 and their derivatives were grown in Luria-Bertani (LB) medium at 37° C. or MSgg medium (1) at 23° C. Solid media contained 1.5% Bacto agar. When appropriate, antibiotics were added at the following concentrations for growth of B. subtilis: 10 μg per ml of tetracycline, and 5 μg per ml of erythromycin, 500 μg per ml of spectinomycin.
B. subtilis strain NCBI3610 was grown at 22° C. in 12-well plates in liquid biofilm-inducing medium for 3 or 8 days. Conditioned medium (500 ml) from an 8-day-old culture was concentrated on the C-18 column and eluted step-wise with methanol. […]
Pellicle formation of strain NCBI 3610 was tested in the presence of the indicated concentrations of norspermidine (FIG. 1D) or spermidine (FIG. 1E).
To identify features of norspermidine important for its biofilm disassembly activity, we tested a library of polyamines in our biofilm inhibition assay (FIGS. 9A, 9B, 10 and Table 2).
The effect of polyamines on pellicle formation by B. subtilis was examined. B. subtilis wild-type cells were grown to a mid-logarithmic phase and diluted 1:1000 in biofilm media applied with each polyamine to the final concentration of 50 μM.
The effect of cyclic polyamines on biofilm formation by B. subtilis was examined. B. subtilis wild-type cells were grown to a mid-logarithmic phase and diluted 1:1000 in biofilm media (18A) or in a medium applied with cyclic compound 1,5,9-Triazacyclododecane to the final concentration of 50 μM (18B).

B. subtilis pellicles = test: Disassembly of pre-formed pellicles, B. subtilis; type: cell-based, Bacillus subtilis; settings: 250 μM applied at day 2, additional 24 hrs
Method: After incubation for the indicated times, pellicle material and the medium were separated and each brought to a volume of 3 ml. After mild sonication, the OD600 was determined for each sample. The % of disassembly represents the OD600 of the medium as a percent of the sum of the OD600 of the medium and the OD600 of the pellicle. […] Thus, D-amino acids and norspermidine act synergistically in preventing biofilm formation and triggering the disassembly of mature biofilms.
Whether polyamines could trigger disassembly of biofilms formed by B. subtilis was examined. B. subtilis wild-type cells grown in liquid biofilm medium. Cells were grown to mid-logarithmic phase and diluted 1:1000 in liquid biofilm media. At day 2, pre-formed pellicles were applied with either PBS (A) or norspermine (250 μM) (B). Pellicles were incubated for additional 24 hrs.

SMILES	inhibition of S. aureus biofilm formation (S. aureus strain SCO1)	inhibition of S. aureus submerged biofilm formation, compound screen (S. aureus strain SCO1)	cell growth [1]	inhibition of E. coli submerged biofilm formation (E. coli strain MC4100)	effect on pellicle formation by amyloid fiber (TasA) mutant [2]	effect on residual pellicle of exopolysaccharide mutant [2]	inhibition of biofilm formation on solid biofilm medium [3]	staining of exopolysaccharide, S. aureus cells [4]	staining of exopolysaccharide, E. coli cells [5]	inhibition of Pseudomonas biofilm formation [6]	pattern of concanavalin A-Texas Red staining of exopolysaccharide ([7]; norspermidine 25 μM, spermidine 1 mM)	effect on protein component of the matrix (TasA-mCherry) ([7]; norspermidine 50 μM)	reduction of Proteus mirabilis biofilm formation [8]	minimal effective concentration ([9]; NCBI3610, read-out: MBIC- Minimal Biofilm Inhibitory Concentration)	concentration at which biofilm formation was inhibited ([9]; authentic norspermidine, pellicle formation NCBI3610)	inhibition of pellicle formation at 50 μM [9]	disassembly of pre-formed pellicles (B. subtilis pellicles)	minimal effective concentration ([9]; NCBI3610, B. subtilis biofilm inhibition assay, library of polyamines, read-out: MBIC- Minimal Biofilm Inhibitory Concentration)	biofilm-inhibitory activity against B. subtilis ([9]; library of polyamines, structure-activity)
NCCCNCCCN [Molecule 1, N-(3-aminopropyl)propane-1,3-diamine]	inhibit biofilm formation	inhibited the formation of submerged biofilms	not significantly inhibited	inhibited the formation of submerged biofilms	abolished pellicle formation	little effect on the residual pellicle	inhibit biofilm formation	markedly diminished staining of exopolysaccharide	markedly diminished staining of exopolysaccharide	inhibit biofilm formation	disrupted the relatively uniform, cell-associated pattern of staining	little or no effect on the protein component of the matrix	sufficient to reduce biofilm formation	25 to 50 µM	25 µM	inhibit biofilm formation	–	–	–
NCCCNCCCNCCCN [Molecule 2, N′-[3-(3-aminopropylamino)propyl]propane-1,3-diamine]	inhibit biofilm formation	inhibited the formation of submerged biofilms	–	inhibited the formation of submerged biofilms	–	–	inhibit biofilm formation	–	–	inhibit biofilm formation	–	–	sufficient to reduce biofilm formation	–	–	inhibit biofilm formation	triggered disassembly of the pellicles	200 µM	exhibited biofilm-inhibitory activity
